Assay results taken from paper PMC12771125, “Compounds Reducing Human Sperm Motility as Potential Nonhormonal Contraceptives Identified Using a High-Throughput Phenotypic Screening Platform” (ACS Omega, 2025).
Values after ≈ are worked out from the molar mass of the structure shown. Like-named read-outs stand apart in the source and are kept apart here.

Assays:
human sperm = test: Reduction of sperm motility (RSM) high-throughput phenotypic assay; format: cell-based; conditions: for EC50: Homo sapiens, reduction of progressive sperm motility relative to control
Protocol: Using our previously established phenotypic human sperm motility screening platform, we screened a large subset (62,621 compounds) of one of our in-house diversity libraries (National Phenotypic Screening Centre (NPSC) Diversity Set) (Figure A,B). Briefly, human sperm are collected, isolated from semen, distributed into 384-well plates with test compounds, time-lapse images of sperm movement are recorded using a high-content imager, and progressive motility parameters are calculated using custom data analysis software. Sperm motility is complicated, and the mechanisms underpinning its regulation are not fully understood. Progressive motility, which is a measurement of the movement of forward progression of sperm, is most closely linked to sperm quality, and the percentage of progressively motile sperm compared to control is therefore the parameter utilized during the work described in this paper. […]
We used an HTS screening platform to assess the motility of live human spermatozoa. The platform and its development are described in detail in Gruber et al. , and summarized below in brief. The platform was used to screen compound libraries specifically focusing on reduction in motility. Interesting compounds were examined in further detail as possible starting points for a medicinal chemistry program. The experimental design is illustrated in Figure .
Donors were local to the Dundee area, over the age of 18, and had no known fertility problems and normal sperm concentration, motility and semen characteristics according to WHO 2021 criteria. Special category personal data for donors, such as ethnic origin, was not recorded in accordance with ethical approval and UK GDPR. Samples were obtained by masturbation, after sexual abstinence of 2–5 days, and delivered to the research laboratory within one h of production. Samples were allowed to liquefy at 37 °C for 15–30 min prior to preparation by discontinuous density gradient centrifugation (DGC). […] A minimum of 3 prepared donor samples were routinely pooled to reduce donor-to-donor variability for primary screening assays. Pooled samples were incubated for 3 h at 37 °C under noncapacitating conditions.
In brief, screening batches of cells were transferred to a robotic platform (HighRes Biosolutions Inc.) and maintained during the screen at 37 °C at 5% CO2. Assay-ready 384-well plates containing compounds were prepared prior to the screen and filled with approximately 10,000 spermatozoa (20 μL) per well using a liquid handling system (MultiDrop Combi; ThermoFisher). These plates were incubated for 10 min prior to imaging. The HTS system utilized a Yokogawa CV7000 Cell Voyager high-throughput microscope to record time-lapse images from 2 positions in each well. An adaptation of a tracking algorithm, Trackpy v0.4.1 was utilized to track individual spermatozoa within each well and obtain kinematic parameters. Within the compound-test plates, DMSO was used as the vehicle control.
All steps were performed as previously described. , In summary, data from every compound well were normalized to those from in-plate DMSO controls (wells containing the same amount of DMSO as compound wells). Two positions were recorded in every well, and the average of those positions was used for calculating % of control (median value/DMSO median) × 100. Each plate contained 16 DMSO control wells. Median curvilinear velocity (VCL) was used as the primary readout for the NPSC Diversity Set screened at 6 μM, and percentage progressive motility (PM) was used for all other libraries screened. Hits from the primary screening were chosen based on the % change compared to the control. In these experiments, an RSM of ≥20% compared to negative controls (DMSO) was chosen as a cutoff for potential progression.
In a screening program of this scale, a significant number of compounds are likely to have a negative effect on sperm motility, but a number will show general toxicity. […]

HepG2 cells = test: HepG2 cytotoxicity assay (resazurin, 72 h); format: cell-based, human; conditions: for EC50: Homo sapiens, HepG2, 72 h, read-out: HepG2 pEC50 (converted)
From the text: Our overarching aims for investigating our chemical series and deciding which ones had the potential for further progression were to achieve adequate potency in our motility assay, suitable solubility, and minimal cytotoxicity in HepG2 cells. This third point was often the most challenging, as multiple series had cytotoxicity in HepG2 cells. This observation is perhaps not surprising; many potential targets in sperm cells can also be found in somatic cells. Our cytotoxicity assay is run with an incubation time of 72 h, to give time for gross cytotoxic effects to become apparent.
Compound dilution curves were plated directly using a Labcyte Echo 550 acoustic dispenser (125 nL) in 384-well white clear-bottom plates (Greiner). HepG2 cells (ATCCHepG2 HB-8065) were cultured in minimum essential medium (supplemented with glutamax) with 10% FCS and plated (25 μL) using a WellMate dispenser ([…]) and incubated for 72 h. Doxorubicin was used as a positive control drug. Resazurin was then added to each well at a final concentration of 45 μM, and fluorescence was measured using a PHERAstar LS (BMG Labtech) after 4 h of further incubation (excitation of 528 nm and emission of 590 nm). Raw data were normalized to controls and expressed as % growth.
Figure S2: Concentration-response curves from high throughput HepG2 viability assay. Each compound was tested in duplicate and the curves of each replicate are shown. The reported values in the tables are an average of the 2 pEC50 values obtained. […]
determine 0% effect, positive control used to determine 100% effect).
Hit compounds 1a, 6b and 7a were repurchased from commercial suppliers including enamine and […]

Aqueous solubility = format: physicochemical
[1] = 10 min, 10 min incubation, reported <X (neg. log of top concentration) if largest reduction <70%, read-out: RSM pEC50 10 mins (converted)
[2] = 3 h incubation, reported <X if largest reduction <70%, read-out: RSM pEC50 3 hrs (converted)
[3] = 6 h incubation, reported <X if largest reduction <70%, read-out: RSM pEC50 6 hrs (converted)

Compound | EC50 (human sperm; [1]) [µM] | EC50 (human sperm; [2]) [µM] | EC50 (human sperm; [3]) [µM] | EC50 (HepG2 cells) [µM] | solubility (Aqueous solubility) [µM] | increase in potency in the sperm motility assay (human sperm; after 6 h incubation, compared with hit 2a) [log-unit] | increase in cytotoxicity against HepG2 cells (HepG2 cells; compared with hit 2a) [log] | difference between pEC50 in the sperm motility assay and pEC50 in the HepG2 cytotoxicity assay (human sperm)
COc1cc(N2CCOCC2)ccc1Nc1ncc(Cl)c(Nc2ccccc2NS(C)(=O)=O)n1 [Compound 2a, N-(2-((5-Chloro-2-((2-methoxy-4-morpholinophenyl)amino)pyrimidin-4-yl)amino)phenyl)methanesulfonamide, reference compound] | 3.98 | 2.51 | 2 | 3.98 | 30 (≈ 15.2 µg/mL) |  |  | 
CNC(=O)c1ccccc1Nc1nc(Nc2ccc(N3CCOCC3)cc2OC)ncc1Cl [Compound 2b] | 2.51 |  |  | 2 | 2.2 (≈ 1.03 µg/mL) |  |  | 
CS(=O)(=O)Nc1cc(F)ccc1Nc1nc(Nc2ccc(C(=O)N3CCOCC3)cc2)ncc1Cl [Compound 2c] | 5.01 | 3.16 | 3.98 | 7.94 | 2.3 (≈ 1.2 µg/mL) |  |  | 
CN(c1ccccc1Nc1nc(Nc2ccc(CN3CCOCC3)cc2)ncc1Cl)S(C)(=O)=O [Compound 2d] | > 31.6 | 0.126 | 0.126 | 0.398 | 64 (≈ 32.2 µg/mL) | 1 | 1 | 
CS(=O)(=O)Nc1cc(F)ccc1Nc1nc(Nc2ccc(CN3CCNCC3)cc2)ncc1Cl [Compound 2e] | 3.98 | 2 | 1.58 | 15.8 | 27 (≈ 13.7 µg/mL) |  |  | 
CS(=O)(=O)Nc1ccccc1Nc1nc(NC2CCOCC2)ncc1Cl [Compound 2f] | > 31.6 | > 31.6 | > 31.6 | 5.01 | 16 (≈ 6.37 µg/mL) |  |  | 
O=C(Nc1nc(-c2ccccn2)cs1)Nc1ccc(F)cc1F [Compound 3b, 1-(2,4-Difluorophenyl)-3-(4-(pyridin-2-yl)thiazol-2-yl)urea] | > 31.6 | > 31.6 | 7.94 | 7.94 | 1.2 (≈ 0.399 µg/mL) |  |  | 
O=C(Nc1nc(-c2ccccn2)cs1)c1ccccc1Cl [Compound 3c] | > 31.6 | > 31.6 | > 31.6 | > 100 | 100 (≈ 31.6 µg/mL) |  |  | 
O=C(Nc1nc(-c2cccnc2)cs1)Nc1ccc(F)cc1F [Compound 3d] | > 31.6 | > 31.6 | > 31.6 | > 100 | 1.5 (≈ 0.499 µg/mL) |  |  | 
O=C(Nc1nc(-c2ccccc2)cs1)Nc1ccc(F)cc1F [Compound 3e] | > 31.6 | > 31.6 | > 31.6 | 50.1 | 0.24 (≈ 0.0795 µg/mL) |  |  | 
O=C(Nc1nc(-c2ccc(F)cc2F)cs1)Nc1ccc(F)cc1F [Compound 3f] | > 31.6 | > 31.6 | > 31.6 | > 100 | 0.29 (≈ 0.107 µg/mL) |  |  | 
CC(C)c1csc(NC(=O)Nc2ccc(F)cc2F)n1 [Compound 3g] | > 31.6 | > 31.6 | > 31.6 | > 100 | 0.89 (≈ 0.265 µg/mL) |  |  | 
O=C(Nc1nc(-c2ccccn2)cs1)NC1CCOCC1 [Compound 3i] | > 31.6 | > 31.6 | > 31.6 | > 100 | 220 (≈ 67 µg/mL) |  |  | 
CC(C)NC(=O)Nc1nc(-c2ccccn2)cs1 [Compound 3j] | > 31.6 | > 31.6 | > 31.6 | > 100 | 140 (≈ 36.7 µg/mL) |  |  | 
O=C(Nc1nc(-c2ccccn2)cs1)NC1CCNCC1 [Compound 3k] | > 31.6 | > 31.6 | > 31.6 | > 100 | 130 (≈ 39.4 µg/mL) |  |  | 
CC(C)CNC(=O)Nc1nc(-c2ccccn2)cs1 [Compound 3l] | > 31.6 | > 31.6 | 7.94 | > 100 | 9.3 (≈ 2.57 µg/mL) |  |  | 
Cc1sc(NC(=O)Nc2ccc(F)cc2F)nc1-c1ccccn1 [Compound 3m] | > 31.6 | 15.8 | 2 | 12.6 | 0.38 (≈ 0.132 µg/mL) |  |  | less than 1 log units
CC(=O)Nc1nc2c(Cl)c(Cl)ccc2s1 [Compound 4a, N-(4,5-Dichlorobenzo[d]thiazol-2-yl)acetamide] | 12.6 | 5.01 | 3.98 | 50.1 | 200 (≈ 52.2 µg/mL) |  |  | ~1 log units
Nc1nc2c(Cl)c(Cl)ccc2s1 [Compound 4b] | > 31.6 | > 31.6 | > 31.6 | 50.1 | 60 (≈ 13.1 µg/mL) |  |  | 
CC(C)C(=O)Nc1nc2c(Cl)c(Cl)ccc2s1 [Compound 4c] | 10 | 6.31 | 5.01 | 50.1 | 18 (≈ 5.21 µg/mL) |  |  | 
O=C(Nc1nc2c(Cl)c(Cl)ccc2s1)C1CC1 [Compound 4d] | 10 | 3.98 | 3.98 | 50.1 | 12 (≈ 3.45 µg/mL) |  |  | 
CC(C)CC(=O)Nc1nc2c(Cl)c(Cl)ccc2s1 [Compound 4e] | > 31.6 | 6.31 | 6.31 | > 100 | 4.5 (≈ 1.36 µg/mL) |  |  | 
O=C(Nc1nc2c(Cl)c(Cl)ccc2s1)C1CCCC1 [Compound 4f] | 10 | 5.01 | 3.98 | 50.1 | 4.2 (≈ 1.32 µg/mL) |  |  | 
O=C(Nc1nc2c(Cl)c(Cl)ccc2s1)c1ccccc1 [Compound 4g] | 10 | 3.98 | 3.98 | 100 | 0.6 (≈ 0.194 µg/mL) |  |  | 
NC(=O)Nc1nc2c(Cl)c(Cl)ccc2s1 [Compound 4h] | > 31.6 | > 31.6 | > 31.6 | 63.1 | 190 (≈ 49.8 µg/mL) |  |  | 
O=C(Nc1nc2c(Cl)cccc2s1)C1CC1 [Compound 4i] | > 31.6 | > 31.6 | > 31.6 | > 100 | 5.1 (≈ 1.29 µg/mL) |  |  | 
O=C(Nc1nc2cc(Cl)ccc2s1)C1CC1 [Compound 4j] | > 31.6 | > 31.6 | > 31.6 | > 100 | 3.4 (≈ 0.859 µg/mL) |  |  | 
O=C(Nc1nc2c(F)c(F)ccc2s1)C1CC1 [Compound 4k] | > 31.6 | > 31.6 | > 31.6 | > 100 | 8.5 (≈ 2.16 µg/mL) |  |  | 
O=C(Nc1nc2cc(F)c(F)cc2s1)C1CC1 [Compound 4l] | > 31.6 | > 31.6 | > 31.6 | > 100 | 4 (≈ 1.02 µg/mL) |  |  | 
